# Calls of active or inactive are those of the source. The rule behind the calls is not given here.
# Columns and labels:
# [1] = test system: Mycobacterium avium; assay: Antibacterial activity against Mycobacterium avium assessed as inhibition of bacterial growth at <=4 ug/ml; assay type: functional; parameters: scale not given: the % may be the effect or the level left
# [2] = test system: Enterococcus faecalis; assay: Antibacterial activity against Enterococcus faecalis; assay type: functional
# [3] = test system: Enterococcus faecalis; assay: Antibacterial activity against Enterococcus faecalis in presence of 50 ug/ml thymidine; assay type: functional
# [4] = test system: Enterococcus faecalis; assay: Antibacterial activity against Enterococcus faecalis in presence of 250 ug/ml thymidine; assay type: functional
# [5] = test system: Enterococcus faecium; assay: Antibacterial activity against Enterococcus faecium; assay type: functional
# [6] = test system: Enterococcus faecium; assay: Antibacterial activity against Enterococcus faecium in presence of 50 ug/ml thymidine; assay type: functional
# [7] = test system: Enterococcus faecium; assay: Antibacterial activity against Enterococcus faecium in presence of 250 ug/ml thymidine; assay type: functional
# [8] = test system: Streptococcus pneumoniae; assay: Antibacterial activity against Streptococcus pneumoniae
# [9] = test system: Streptococcus pneumoniae; assay: Antibacterial activity against Streptococcus pneumoniae in presence of 50 ug/ml thymidine; assay type: functional
# [10] = test system: Streptococcus pneumoniae; assay: Antibacterial activity against Streptococcus pneumoniae in presence of 250 ug/ml thymidine; assay type: functional
# [11] = test system: Haemophilus influenzae; assay: Antibacterial activity against Haemophilus influenzae; assay type: functional
# [12] = test system: Haemophilus influenzae; assay: Antibacterial activity against Haemophilus influenzae in presence of 50 ug/ml thymidine
# [13] = test system: Haemophilus influenzae; assay: Antibacterial activity against Haemophilus influenzae in presence of 250 ug/ml thymidine; assay type: functional
# [14] = test system: Enterococcus faecalis; assay: Antibacterial activity against vancomycin-sensitive folA, dfrF-negative Enterococcus faecalis harboring A5T, K88N, F102Y mutation in dfrE gene; assay type: functional
# [15] = test system: Enterococcus faecalis; assay: Antibacterial activity against vancomycin-sensitive dfrE, dfrF-positive and folA-negative Enterococcus faecalis; assay type: functional
# [16] = test system: Enterococcus faecium; assay: Antibacterial activity against vancomycin-sensitive dfrE, dfrF-negative and folA-positive Enterococcus faecium; assay type: functional
# [17] = test system: Enterococcus faecium; assay: Antibacterial activity against vancomycin-resistant dfrE, dfrF-negative and folA-positive Enterococcus faecium; assay type: functional
# [18] = test system: Enterococcus faecium; assay: Antibacterial activity against vancomycin-resistant dfrE-negative and folA, dfrF-positive Enterococcus faecium; assay type: functional
# [19] = test system: Staphylococcus aureus; assay: Antibacterial activity against methicillin-sensitive dfrB-positive abd dfrA, dfrG-negative Staphylococcus aureus; assay type: functional
# [20] = test system: Staphylococcus aureus; assay: Antibacterial activity against methicillin-resistant dfrA within SCCmec-N1, dfrA and dfrG -negative Staphylococcus aureus harboring F98Y mutation in dfrB gene; assay type: functional
# [21] = test system: Staphylococcus aureus; assay: Antibacterial activity against methicillin-resistant dfrB, dfrA-positive and dfrA within SCCmec-N1, dfrG-negative Staphylococcus aureus; assay type: functional
# [22] = test system: Staphylococcus aureus; assay: Antibacterial activity against methicillin-resistant dfrB, dfrG-positive and dfrA-negative Staphylococcus aureus; assay type: functional
# [23] = test system: Staphylococcus epidermidis; assay: Antibacterial activity against methicillin-sensitive dfrC-positive and dfrA, dfrD-negative Staphylococcus epidermidis; assay type: functional
# [24] = test system: Staphylococcus epidermidis; assay: Antibacterial activity against methicillin-sensitive dfrA, dfrD-negative Staphylococcus epidermidis harboring F98Y mutation in dfrC gene; assay type: functional
# [25] = test system: Staphylococcus epidermidis; assay: Antibacterial activity against methicillin-sensitive dfrA-positive and dfrD-negative Staphylococcus epidermidis harboring F98Y mutation in dfrC gene; assay type: functional
# [26] = test system: Staphylococcus epidermidis; assay: Antibacterial activity against methicillin-sensitive dfrC, dfrA-positive and dfrD-negative Staphylococcus epidermidis; assay type: functional
# [27] = test system: Staphylococcus epidermidis; assay: Antibacterial activity against methicillin-resistant dfrC, dfrA-positive and dfrA within SCCmec-N1, dfrD-negative Staphylococcus epidermidis; assay type: functional
# [28] = test system: Staphylococcus aureus; assay: Antibacterial activity against methicillin, vancomycin, trimethoprim-sensitive Staphylococcus aureus ATCC 29213 harboring dfrB gene; assay type: functional
# [29] = test system: Staphylococcus aureus; assay: Antibacterial activity against vancomycin, trimethoprim-sensitive and methicillin-resistant Staphylococcus aureus ATCC 43300 harboring dfrB gene; assay type: functional
# [30] = test system: Staphylococcus aureus; assay: Antibacterial activity against vancomycin, trimethoprim, methicillin-resistant Staphylococcus aureus VRS1 harboring dfrA and dfrB genes; assay type: functional
# [31] = test system: Staphylococcus epidermidis; assay: Antibacterial activity against methicillin, vancomycin, trimethoprim-sensitive Staphylococcus epidermidis ATCC 14990 harboring dfrC gene; assay type: functional
# [32] = test system: Staphylococcus epidermidis; assay: Antibacterial activity against methicillin, vancomycin-sensitive and trimethoprim-resistant Staphylococcus epidermidis BAS000635 harboring dfrC and dfrA genes; assay type: functional
# [33] = Inhibition of trimethoprim-sensitive Staphylococcus aureus DfrB type dihydrofolate reductase
# [34] = target: Dihydrofolate reductase (Staphylococcus aureus, UniProt P0A017, F99Y); assay: Inhibition of trimethoprim-resistant Staphylococcus aureus DfrB type dihydrofolate reductase F98Y mutant
# [35] = test system: HeLa; assay: Cytotoxicity against human HeLa cells; assay type: cell-based
# [36] = test system: Mus musculus; assay: Hepatotoxicity in NMRI mouse assessed as increase in liver weight at 400 mg/kg administered through oral gavage for 5 days; assay type: toxicity, organism-based; parameters: dose 400 mg/kg, route oral; conditions: in vivo, 120 h
# [37] = Oral bioavailability in NMRI mouse; assay type: ADME, organism-based; conditions: in vivo
# [38] = Cmax in NMRI mouse blood at 25 mg/kg administered through oral gavage measured after 7 hrs; assay type: ADME, organism-based; parameters: dose 25 mg/kg, route oral
# [39] = Tmax in NMRI mouse blood at 25 mg/kg administered through oral gavage measured after 7 hrs; assay type: ADME, organism-based; parameters: dose 25 mg/kg, route oral
# [40] = AUC (0 to t) in NMRI mouse blood at 25 mg/kg administered through oral gavage after 7 hrs; assay type: ADME, organism-based; parameters: time < 7 hr, dose 25 mg/kg, route oral
# [41] = test system: Staphylococcus aureus; assay: Antibacterial activity against trimethoprim-sensitive Staphylococcus aureus ATCC 29213; assay type: functional
# [42] = test system: Staphylococcus aureus; assay: Antibacterial activity against trimethoprim-sensitive Staphylococcus aureus ATCC 29213 infected in NMRI mouse model of septicemia assessed as complete protection from infections at 3.1 mg/kg, iv; assay type: functional, organism-based; parameters: dose 3.1 mg/kg
# [43] = test system: Staphylococcus aureus; assay: Antibacterial activity against trimethoprim-sensitive Staphylococcus aureus ATCC 29213 infected in NMRI mouse model of septicemia assessed as succumbed to infections at 1.6 mg/kg, iv; assay type: functional, organism-based; parameters: dose 1.6 mg/kg
# [44] = test system: Staphylococcus aureus; assay: Antibacterial activity against trimethoprim-sensitive Staphylococcus aureus ATCC 29213 infected in NMRI mouse model of septicemia; assay type: functional
# [45] = test system: Staphylococcus aureus; assay: Antibacterial activity against trimethoprim-resistant Staphylococcus aureus BAS003908; assay type: functional
# [46] = test system: Staphylococcus aureus; assay: Antibacterial activity against trimethoprim-resistant Staphylococcus aureus BAS003908 infected in NMRI mouse model of septicemia; assay type: functional
# [47] = test system: Mus musculus; assay: Toxicity in po dosed NMRI mouse; assay type: organism-based; conditions: in vivo
# [48] = Inhibition of trimethoprim-resistant Staphylococcus aureus Type S1 dihydrofolate reductase
smiles,measurement,setting,value
COc1cc(Cc2cnc(N)nc2N)cc(/C=C/C(=O)N2N=Cc3ccccc3C2c2cnc(N(C)C)nc2)c1OC (stereo unspecified),Activity,[1],77%
same,MIC,[2],0.5 µg/mL
same,MIC,[3],≤ 0.25 µg/mL
same,MIC,[4],1 µg/mL
same,MIC,[5],2 µg/mL
same,MIC,[6],≥ 128 µg/mL
same,MIC,[7],≥ 128 µg/mL
same,MIC,[8],≥ 128 µg/mL
same,MIC,[9],32 µg/mL
same,MIC,[10],≥ 128 µg/mL
same,MIC,[11],> 128 µg/mL
same,MIC,[12],≥ 128 µg/mL
same,MIC,[13],32 µg/mL
same,MIC,[14],0.5 µg/mL
same,MIC,[15],> 128 µg/mL
same,MIC,[16],≤ 0.25 µg/mL
same,MIC,[17],2 µg/mL
same,MIC,[18],> 128 µg/mL
same,MIC,[19],1 µg/mL
same,MIC,[20],1 µg/mL
same,MIC,[21],1 µg/mL
same,MIC,"[21]; Staphylococcus aureus, read-out: MIC",2 µg/mL
same,MIC,[22],64 µg/mL
same,MIC,[23],< 0.25 µg/mL
same,MIC,[24],1 µg/mL
same,MIC,[25],1 µg/mL
same,MIC,[26],1 µg/mL
same,MIC,[27],0.5 µg/mL
same,MIC,[28],0.5 µg/mL
same,MIC,[29],1 µg/mL
same,MIC,[30],2 µg/mL
same,MIC,[31],0.25 µg/mL
same,MIC,[32],2 µg/mL
same,IC50,[33],11.3 nM
same,IC50,[34],70.2 nM
same,IC50,[35],12 µM
same,Activity,[36],< 10%
same,bioavailability,[37],26%
same,Cmax,[38],5390 ng/mL
same,Tmax,[39],2 h
same,AUC(0-t) at 7 h,[40],23400 ng·h/mL
same,MIC,[41],1 µg/mL
same,Activity,[42],Active
same,Activity,[43],inactive
same,ED50,[44],1.6 mg/kg
same,MIC,[45],1 µg/mL
same,ED50,[46],3.1 mg/kg
same,Activity,[47],400 mg/kg
COc1cc(Cc2cnc(N)nc2N)cc(/C=C/C(=O)N2N=Cc3ccccc3[C@@H]2c2cnc(N3CCOCC3)nc2)c1OC,MIC,[28],1 µg/mL
same,MIC,[29],1 µg/mL
same,MIC,[30],2 µg/mL
same,MIC,[31],0.25 µg/mL
same,MIC,[32],2 µg/mL
same,IC50,[33],8.9 nM
same,IC50,[34],64.4 nM
same,IC50,[48],98 nM

# From ChEMBL document CHEMBL1671659, “In vitro and in vivo properties of dihydrophthalazine antifolates, a novel family of antibacterial drugs” (Antimicrob Agents Chemother, 2009)
